Consider one substance from patent US20230364277A1, “E-SELECTIN TARGETING AGENTS” (GLYCOMIMETICS, INC., priority 2020, published 2023).

In the test the test system is E-selectin expression on HUVEC. In words: Induction of E-selectin expression on HUVEC by TNFα (flow cytometry, anti-E-selectin antibody). The format is cell-based, human. The settings on record: with TNFα stimulation. As for the experimental part:
Subsequent studies were performed to investigate the ability of liposomes containing Compound 3 to recognize and bind to cells under conditions where E-selectin is expressed. For these liposomes with and without Compound 3 were prepared with a fluorescent phospholipid membrane marker (Composition 4 and Composition 3, respectively) allowing for detection by flow cytometry. Liposomes were incubated for 60 min at 37° C. with cultures of human umbilical vein endothelial cells (HUVEC) pretreated in media deficient in TNFα or supplemented with TNFα to induce E-selectin expression. Association of fluorescein labeled liposomes with cell preparations by flow cytometry was then determined.
The flow cytometry-based assay used liposomes containing 0% or 5% Compound 3 (L4 and L5, respectively). Initial studies defined that only TNFα-stimulated HUVEC but not unstimulated HUVEC express E-selectin.
For orientation: Flow cytometry measures light scatter and fluorescence of single cells or particles in a stream.

For TNFα, the “HUVEC express E-selectin” value stood at 88.696%.
